The source of these data is ChEMBL document CHEMBL4725261, “Design, synthesis and evaluation of carbamate-linked uridyl-based inhibitors of human ST6Gal I” (Bioorg Med Chem, 2020).

Assay [1] concerns the target T1, Beta-galactoside alpha-2,6-sialyltransferase 1 (Homo sapiens) (UniProt P15907).
T1 sequence (whole entry): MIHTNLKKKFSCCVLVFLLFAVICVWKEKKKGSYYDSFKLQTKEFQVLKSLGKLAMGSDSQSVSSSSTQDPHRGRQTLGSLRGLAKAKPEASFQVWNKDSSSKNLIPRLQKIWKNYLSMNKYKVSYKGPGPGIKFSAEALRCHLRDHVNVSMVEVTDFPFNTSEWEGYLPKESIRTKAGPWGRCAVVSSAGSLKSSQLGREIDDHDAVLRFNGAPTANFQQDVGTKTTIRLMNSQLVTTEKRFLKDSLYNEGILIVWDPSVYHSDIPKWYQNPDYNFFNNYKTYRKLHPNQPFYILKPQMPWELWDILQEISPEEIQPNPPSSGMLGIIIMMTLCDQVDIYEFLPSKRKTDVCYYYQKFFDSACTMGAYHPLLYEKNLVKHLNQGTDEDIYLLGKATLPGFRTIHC
The experiment in a line: Inhibition of recombinant human N-terminal 6His-tagged ST6Gal-1 (Glu44 to Cys406 residues) assessed as CMP production at 10 uM using CMP-Neu5Ac as donar substrate and LacNAc as acceptor by CMP-Glo luminescence microplate reader assay relative to control.

Assay [2] deals with T1, Beta-galactoside alpha-2,6-sialyltransferase 1 (Homo sapiens). The experiment in a line: Binding affinity to recombinant human N-terminal 6His-tagged ST6Gal-1 (Glu44 to Cys406 residues) assessed as Km/Ki ratio.

As usually defined, the inhibition is the change of the read-out against control, counted positive when it falls.

Consider `O=C(NC[C@H]1O[C@@H](n2ccc(=O)[nH]c2=O)[C@H](O)[C@@H]1O)OC(c1cccc(F)c1)P(=O)(O)O` (stereo in doubt; 28d-(l)), for which the inhibition in assay [1] was 18%.

With `COc1cccc(C(OC(=O)NC[C@H]2O[C@@H](n3ccc(=O)[nH]c3=O)[C@H](O)[C@@H]2O)P(=O)(O)O)c1` (stereo in doubt; 28f-(l)), the inhibition in assay [1] worked out at 23.6%.

Turning to `COc1ccc(C(OC(=O)NC[C@H]2O[C@@H](n3ccc(=O)[nH]c3=O)[C@H](O)[C@@H]2O)P(=O)(O)O)cc1` (stereo in doubt; 28g-(s)), the inhibition in assay [1] is 18.1%.

Turning to `Nc1ccn([C@@H]2O[C@H](CNC(=O)OC(c3cccc(Oc4ccccc4)c3)P(=O)(O)O)[C@@H](O)[C@H]2O)c(=O)n1` (stereo in doubt; 30-(l)), the inhibition in assay [1] was 6.3%.

As to `O=C(NC[C@H]1O[C@@H](n2ccc(=O)[nH]c2=O)[C@H](O)[C@@H]1O)OC(c1ccc(F)cc1)P(=O)(O)O` (stereo in doubt; 28c-(s)), in assay [2], the Ratio is 0.1. For the same compound, the inhibition in assay [1] was determined as 34.6%.

Take `Nc1ccn([C@@H]2O[C@H](CNC(=O)OC(c3cccc(Oc4ccccc4)c3)P(=O)(O)O)[C@@H](O)[C@H]2O)c(=O)n1` (stereo in doubt; 30-(s)): the inhibition in assay [1] was determined as 2.2%.

With `O=C(NC[C@H]1O[C@@H](n2ccc(=O)[nH]c2=O)[C@H](O)[C@@H]1O)OC(c1ccc(F)c(Oc2ccccc2)c1)P(=O)(O)O` (stereo in doubt; 28b-(s)), in assay [1], the inhibition came to 1.1%.

Turning to `O=C(NC[C@H]1O[C@@H](n2ccc(=O)[nH]c2=O)[C@H](O)[C@@H]1O)OC(c1cc2ccccc2s1)P(=O)(O)O` (stereo in doubt; 28k-(s)), in assay [2], the Ratio came to 4.4. In addition, in assay [1], the inhibition turned out to be 66.4%.

As for `O=C(NC[C@H]1O[C@@H](n2ccc(=O)[nH]c2=O)[C@H](O)[C@@H]1O)OC(c1ccc(F)c(Oc2ccccc2)c1)P(=O)(O)O` (stereo in doubt; 28b-(l)), the inhibition in assay [1] turned out to be 1.8%.

On to `CCCOc1cccc(C(OC(=O)NC[C@H]2O[C@@H](n3ccc(=O)[nH]c3=O)[C@H](O)[C@@H]2O)P(=O)(O)O)c1` (stereo in doubt; 28e-(l)), for which, in assay [2], the Ratio was 1.8. The inhibition in assay [1] was found to be 30.9%.

As for `O=C(NC[C@H]1O[C@@H](n2ccc(=O)[nH]c2=O)[C@H](O)[C@@H]1O)OC(c1cccc(F)c1)P(=O)(O)O` (stereo in doubt; 28d-(s)), the Ratio in assay [2] turned out to be 1.9. Moreover, the inhibition in assay [1] worked out at 36.6%.

As for `O=C(NC[C@H]1O[C@@H](n2ccc(=O)[nH]c2=O)[C@H](O)[C@@H]1O)OC(c1cccc(Oc2ccccc2)c1)P(=O)(O)O` (stereo in doubt; 28a-(l)), the inhibition in assay [1] came to 28.2%.

Turning to `O=C(NC[C@H]1O[C@@H](n2ccc(=O)[nH]c2=O)[C@H](O)[C@@H]1O)OC(c1cc2ccccc2s1)P(=O)(O)O` (stereo in doubt; 28k-(l)), in assay [1], the inhibition was 13.2%.

On to `O=C(NC[C@H]1O[C@@H](n2ccc(=O)[nH]c2=O)[C@H](O)[C@@H]1O)OC(c1cccc(Oc2ccccc2)c1)P(=O)(O)O` (stereo in doubt; 28a-(s)), for which the inhibition in assay [1] stood at 19.9%.

For `O=C(NC[C@H]1O[C@@H](n2ccc(=O)[nH]c2=O)[C@H](O)[C@@H]1O)OC(c1csc2ccccc12)P(=O)(O)O` (stereo in doubt; 28l-(l)), in assay [1], the inhibition was 6.9%.

`O=C(NC[C@H]1O[C@@H](n2ccc(=O)[nH]c2=O)[C@H](O)[C@@H]1O)OC(c1ccccc1)P(=O)(O)O` (stereo in doubt; 28j-(l)): in assay [1], the inhibition came to 15.2%.

`CCCOc1cccc(C(OC(=O)NC[C@H]2O[C@@H](n3ccc(=O)[nH]c3=O)[C@H](O)[C@@H]2O)P(=O)(O)O)c1` (stereo in doubt; 28e-(s)): the inhibition in assay [1] turned out to be 7.2%.

Consider `O=C(NC[C@H]1O[C@@H](n2ccc(=O)[nH]c2=O)[C@H](O)[C@@H]1O)OC(c1ccc(OC2CCCC2)cc1)P(=O)(O)O` (stereo in doubt; 28i-(l)), for which the Ratio in assay [2] is 3.2. In addition, the inhibition in assay [1] is 78%.

As to `O=C(NC[C@H]1O[C@@H](n2ccc(=O)[nH]c2=O)[C@H](O)[C@@H]1O)OC(c1ccc(OC2CCCC2)cc1)P(=O)(O)O` (stereo in doubt; 28i-(s)), the Ratio in assay [2] is 0.7. In assay [1], the inhibition was 19%.

`COc1ccc(C(OC(=O)NC[C@H]2O[C@@H](n3ccc(=O)[nH]c3=O)[C@H](O)[C@@H]2O)P(=O)(O)O)cc1` (stereo in doubt; 28g-(l)): the inhibition in assay [1] turned out to be 7.1%.

On to `O=C(NC[C@H]1O[C@@H](n2ccc(=O)[nH]c2=O)[C@H](O)[C@@H]1O)OC(c1ccccc1)P(=O)(O)O` (stereo in doubt; 28j-(s)), for which, in assay [1], the inhibition amounted to 7.1%.

For `O=C(NC[C@H]1O[C@@H](n2ccc(=O)[nH]c2=O)[C@H](O)[C@@H]1O)OC(c1csc2ccccc12)P(=O)(O)O` (stereo in doubt; 28l-(s)), the inhibition in assay [1] turned out to be 5.9%.

On to `O=C(NC[C@H]1O[C@@H](n2ccc(=O)[nH]c2=O)[C@H](O)[C@@H]1O)OC(c1ccc(F)cc1)P(=O)(O)O` (stereo in doubt; 28c-(l)), for which the Ratio in assay [2] came to 32.5. In assay [1], the inhibition was found to be 58.9%.

Take `COc1cccc(C(OC(=O)NC[C@H]2O[C@@H](n3ccc(=O)[nH]c3=O)[C@H](O)[C@@H]2O)P(=O)(O)O)c1` (stereo in doubt; 28f-(s)): the inhibition in assay [1] turned out to be 29.8%.

`COc1ccc(C(OC(=O)NC[C@H]2O[C@@H](n3ccc(=O)[nH]c3=O)[C@H](O)[C@@H]2O)P(=O)(O)O)cc1OC1CCCC1` (stereo in doubt; 28h-(s)): the inhibition in assay [1] is 12.7%.

For the compound `COc1ccc(C(OC(=O)NC[C@H]2O[C@@H](n3ccc(=O)[nH]c3=O)[C@H](O)[C@@H]2O)P(=O)(O)O)cc1OC1CCCC1` (stereo in doubt; 28h-(l)), the inhibition in assay [1] is 7.9%.
